In patent US10294202B2, “Pyrrolidinones as herbicides” (FMC Corporation, priority 2013, dated 2019):

Columns and labels:
barnyardgrass = test: Test F flood (paddy) test; type: in vivo, Echinochloa crus-galli; conditions: 21 d, scale 0-100
Excerpt: (§1) Three plastic pots (ca. 16-cm diameter) per rate were partially filled with sterilized Tama silt loam soil comprising a 35:50:15 ratio of sand, silt and clay and 2.6% organic matter. Separate plantings for each of the three pots were as follows. Seeds from the U.S. of monochoria (Monochoria vaginalis), sedge, umbrella (small-flower umbrella sedge, Cyperus difformis), bulrush, […] bulrush, Scirpus juncoides), and […] (purple […] coccinea), were planted into one 16-cm pot for each rate. Seeds from the U.S. of flatsedge, rice (rice flatsedge, Cyperus iria), sprangletop, Brdd. (bearded sprangletop, Leptochloa fascicularis), one stand of 9 or 10 water seeded rice seedlings (Rice, W.S. Jap, Oryza sativa cv. 'Japonica-[…]' or Rice, W.S. Ind, 'Indica'), and two stands of 3 or 4 seedlings of rice, transplanted (transplanted rice, Oryza sativa cv. 'Japonica-[…]') were planted into one 16-cm pot for each rate. Seeds from the U.S. of barnyardgrass (Echinochloa crus-galli), […] (common […], Alisma plantago-aquatica), and watergrass, late (late watergrass, Echinochloa oryzicola) were planted into one 16-cm pot for each rate. Plantings were sequential so that crop and weed species were at the 2.0 to 2.5-leaf stage at time of treatment. Potted plants were grown in a greenhouse with day/night temperature settings of 30/27° C., and supplemental balanced lighting was provided to maintain a 16-h photoperiod. Test pots were maintained in the greenhouse until test completion. At time of treatment, test pots were flooded to 3 cm above the soil surface, treated by application of test compounds directly to the paddy water, and then maintained at that water depth for the duration of the test. Effects of treatments on rice and weeds were visually evaluated by comparison to untreated controls after 21 d. Plant response ratings, summarized in Table F, are based on a scale of 0 to 100 where 0 is no effect and 100 is complete control. A dash (-) response means no test result.

monochoria = test: Test F flood (paddy) test; type: in vivo, Monochoria vaginalis; conditions: 21 d, scale 0-100
Excerpt: as §1

wheat, winter = test: Test D pre-/postemergence herbicide test; type: in vivo, Triticum aestivum; conditions: for Plant response rating: Postemergence, Wheat, Winter, scale 0 to 100; for Plant response rating, Wheat, Winter: Preemergence, scale 0 to 100 (0 no effect, 100 complete control)
Excerpt: (§2) Seeds of plant species selected from bluegrass (annual bluegrass, Poa annua), blackgrass (Alopecurus myosuroides), canarygrass (littleseed canarygrass, Phalaris minor), chickweed (common chickweed, Stellaria media), galium (catchweed bedstraw, Galium aparine), bromegrass, downy (downy bromegrass, Bromus tectorum), field poppy (Papaver rhoeas), field violet (Viola arvensis), foxtail, green (green foxtail, Setaria viridis), deadnettle (henbit deadnettle, Lamium amplexicaule), ryegrass, Italian (Italian ryegrass, Lolium multiflorum), kochia (Kochia scoparia), lambsquarters (Chenopodium album), oilseed rape (Brassica napus), pigweed (Amaranthus retroflexus), chamomile (scentless chamomile, Matricaria inodora), Russian thistle (Salsola kali), speedwell (bird's-eye speedwell, Veronica persica), barley, spring (spring barley, Hordeum vulgare), wheat, spring (spring wheat, Triticum aestivum), buckwheat, wild (wild buckwheat, Polygonum convolvulus), mustard, wild (wild mustard, Sinapis arvensis), oat, wild (wild oat, Avena fatua), radish, wild (wild radish, Raphanus raphanistrum), […]), barley, winter (winter barley, Hordeum vulgare), and wheat, winter (winter wheat, Triticum aestivum) were planted into a silt loam soil and treated preemergence with test chemicals formulated in a non-phytotoxic solvent mixture which included a surfactant. At the same time, these species were planted in pots containing Redi-Earth® planting medium (Scotts Company, 14111 Scottslawn Road, Marysville, Ohio 43041) comprising spaghnum peat moss, vermiculite, wetting agent and starter nutrients and treated with postemergence applications of the test chemicals formulated in the same manner. Plants ranged in height from 2 to 18 cm (1- to 4-leaf stage). Treated plants and controls were maintained in a controlled growth environment for 7 to 21 days after which time all species were compared to controls and visually evaluated. Plant response ratings, summarized in Table D, are based on a scale of 0 to 100 where 0 is no effect and 100 is complete control. A dash (-) response means no test result.

foxtail, green = test: Test D pre-/postemergence herbicide test; type: in vivo, Setaria viridis; conditions: for Plant response rating: Foxtail, Green, scale 0 to 100; for Plant response rating, Foxtail, Green: scale 0 to 100 (0 no effect, 100 complete control)
Excerpt: as §2

lambsquarters = test: Test D pre-/postemergence herbicide test; type: in vivo, Chenopodium album; conditions: for Plant response rating: Lambsquarters, scale 0 to 100; for Plant response rating, Lambsquarters: scale 0 to 100 (0 no effect, 100 complete control)
Excerpt: as §2

Compound	Plant response rating, Barnyardgrass (barnyardgrass; 250 g ai/ha)	Plant response rating, Barnyardgrass (barnyardgrass; 500 g ai/ha)	Plant response rating, Monochoria (monochoria; 250 g ai/ha)	Plant response rating, Monochoria (monochoria; 500 g ai/ha)	Plant response rating (wheat, winter; 16 g ai/ha)	Plant response rating (wheat, winter; 31 g ai/ha)	Plant response rating (wheat, winter; 62 g ai/ha)	Plant response rating (wheat, winter; 125 g ai/ha)	Plant response rating (wheat, winter; 250 g ai/ha)	Plant response rating, Wheat, Winter (wheat, winter; 31 g ai/ha)	Plant response rating, Wheat, Winter (wheat, winter; 62 g ai/ha)	Plant response rating, Wheat, Winter (wheat, winter; 125 g ai/ha)	Plant response rating, Wheat, Winter (wheat, winter; 250 g ai/ha)	Plant response rating (foxtail, green; Postemergence, 16 g ai/ha)	Plant response rating (foxtail, green; Postemergence, 31 g ai/ha)	Plant response rating (foxtail, green; Postemergence, 62 g ai/ha)	Plant response rating (foxtail, green; Postemergence, 125 g ai/ha)	Plant response rating (foxtail, green; Postemergence, 250 g ai/ha)	Plant response rating, Foxtail, Green (foxtail, green; Preemergence, 31 g ai/ha)	Plant response rating, Foxtail, Green (foxtail, green; Preemergence, 62 g ai/ha)	also measured
O=C1NCC(c2cccc(C(F)(F)F)c2)C1C(=O)Nc1ccccc1F (racemic) [Compound 3]	90	90	90	100	–	–	–	–	–	–	–	–	–	–	–	–	–	–	–	–	–
O=C1NCC(c2ccc(F)c(F)c2)C1C(=O)Nc1cccc(F)c1 (racemic) [Compound 12]	–	–	–	–	0	0	0	0	0	0	0	0	0	0	0	10	20	25	0	0	Plant response rating, Wheat, Winter (wheat, winter; 16 g ai/ha): 0; Plant response rating, Foxtail, Green (foxtail, green; Preemergence, 16 g ai/ha): 0; Plant response rating (foxtail, green; Preemergence, 125 g ai/ha): 0; Plant response rating (foxtail, green; Preemergence, 250 g ai/ha): 0; Plant response rating (lambsquarters; Postemergence, 16 g ai/ha): 0; Plant response rating (lambsquarters; Postemergence, 31 g ai/ha): 0; Plant response rating (lambsquarters; Postemergence, 62 g ai/ha): 10; Plant response rating (lambsquarters; Postemergence, 125 g ai/ha): 10; Plant response rating (lambsquarters; Postemergence, 250 g ai/ha): 25; Plant response rating, Lambsquarters (lambsquarters; Preemergence, 31 g ai/ha): 0; Plant response rating, Lambsquarters (lambsquarters; Preemergence, 62 g ai/ha): 0; Plant response rating, Lambsquarters (lambsquarters; Preemergence, 16 g ai/ha): 0; Plant response rating (lambsquarters; Preemergence, 125 g ai/ha): 30; Plant response rating (lambsquarters; Preemergence, 250 g ai/ha): 30
O=C1NCC(c2cc(F)c(F)c(F)c2)C1C(=O)Nc1ccccc1C(F)(F)F (racemic) [Compound 33]	–	–	–	–	0	0	0	0	0	–	–	–	–	0	0	0	0	0	–	–	Plant response rating (lambsquarters; Postemergence, 16 g ai/ha): 0; Plant response rating (lambsquarters; Postemergence, 31 g ai/ha): 0; Plant response rating (lambsquarters; Postemergence, 62 g ai/ha): 0; Plant response rating (lambsquarters; Postemergence, 125 g ai/ha): 0; Plant response rating (lambsquarters; Postemergence, 250 g ai/ha): 20
O=C1NCC(c2cc(F)c(F)c(F)c2)C1C(=O)Nc1ccccc1F (racemic) [Compound 34]	–	–	–	–	0	0	0	0	0	–	–	–	–	0	0	0	0	0	–	–	Plant response rating (lambsquarters; Postemergence, 16 g ai/ha): 0; Plant response rating (lambsquarters; Postemergence, 31 g ai/ha): 0; Plant response rating (lambsquarters; Postemergence, 62 g ai/ha): 0; Plant response rating (lambsquarters; Postemergence, 125 g ai/ha): 0; Plant response rating (lambsquarters; Postemergence, 250 g ai/ha): 20
O=C1NCC(c2cccc(C(F)(F)F)c2)C1C(=O)Nc1ccc(F)cc1F (racemic) [Compound 207]	100	100	100	100	–	–	–	–	–	0	15	10	20	–	–	–	–	–	15	60	Plant response rating, Foxtail, Green (foxtail, green; Preemergence, 125 g ai/ha): 75; Plant response rating (foxtail, green; Preemergence, 250 g ai/ha): 90; Plant response rating, Lambsquarters (lambsquarters; Preemergence, 31 g ai/ha): 0; Plant response rating, Lambsquarters (lambsquarters; Preemergence, 62 g ai/ha): 30; Plant response rating, Lambsquarters (lambsquarters; Preemergence, 125 g ai/ha): 65; Plant response rating (lambsquarters; Preemergence, 250 g ai/ha): 90; Plant response rating, Barnyardgrass (barnyardgrass; 125 g ai/ha): 60; Plant response rating, Monochoria (monochoria; 125 g ai/ha): 65
O=C1NCC(c2ccc(C(F)(F)F)c(F)c2)C1C(=O)Nc1cccc(F)c1F (racemic) [Compound 247]	65	70	70	75	–	–	–	–	–	–	–	–	–	–	–	–	–	–	–	–	Plant response rating, Barnyardgrass (barnyardgrass; 125 g ai/ha): 60; Plant response rating, Barnyardgrass (barnyardgrass; 1000 g ai/ha): 70; Plant response rating, Barnyardgrass (barnyardgrass; 2000 g ai/ha): 75; Plant response rating, Monochoria (monochoria; 125 g ai/ha): 70; Plant response rating, Monochoria (monochoria; 1000 g ai/ha): 75; Plant response rating, Monochoria (monochoria; 2000 g ai/ha): 75
O=C1NCC(c2cccc(C(F)(F)F)c2)C1C(=O)Nc1cccc(F)c1F (stereo not shown) [Compound 241]	–	–	–	–	–	–	–	–	–	0	5	10	25	–	–	–	–	–	35	90	Plant response rating, Foxtail, Green (foxtail, green; Preemergence, 125 g ai/ha): 90; Plant response rating (foxtail, green; Preemergence, 250 g ai/ha): 90; Plant response rating, Lambsquarters (lambsquarters; Preemergence, 31 g ai/ha): 85; Plant response rating, Lambsquarters (lambsquarters; Preemergence, 62 g ai/ha): 90; Plant response rating, Lambsquarters (lambsquarters; Preemergence, 125 g ai/ha): 90; Plant response rating (lambsquarters; Preemergence, 250 g ai/ha): 90
CN1CC(c2ccc(F)cc2)C(C(=O)Nc2cccc(F)c2F)C1=O (stereo not shown) [Compound 271]	100	100	100	100	–	–	–	–	–	–	–	–	–	–	–	–	–	–	–	–	Plant response rating, Barnyardgrass (barnyardgrass; 64 g ai/ha): 55; Plant response rating, Barnyardgrass (barnyardgrass; 125 g ai/ha): 75; Plant response rating, Monochoria (monochoria; 64 g ai/ha): 85; Plant response rating, Monochoria (monochoria; 125 g ai/ha): 100
